Source: patent US11773078B2, “Furin inhibitors” (Glaxosmithkline Intellectual Property Development Limited, priority 2018, dated 2023)

Assays:
[1] = target: T1, Furin (108-574-Tev-Flag-His) enzyme (Homo sapiens, UniProt P09958); experiment: Furin enzyme assay; format: biochemical
T1 construct: Furin (108-574-Tev-Flag-His) enzyme was expressed and purified from CHO cells; TEV cleavage site (C); FLAG (C); His (C); made in house; host or cells: CHO cells
Experimental: Reactions were performed in black 384-well polystyrene low volume plates (Greiner). Furin (108-574-Tev-Flag-His) enzyme was expressed and purified from CHO cells. Compounds of the invention were dissolved in DMSO (1.0 mM) and serially diluted 1 to 3 with DMSO through eleven dilutions to provide a final compound concentration range from 0.00017 to 10 μM. 0.05 μL of each concentration was transferred to the corresponding well of an assay plate, and then 5 μL of 40 pM furin enzyme in assay buffer (100 mM HEPES pH7.5, 1 mM CaCl2 and 0.005% Triton X-100) was added using a Multidrop Combi (Thermo) to the compound plates, and mixed by inversion. […] The plates were centrifuged at 500×g for 1 minute and incubated at room temperature for two hours. Enzyme inhibition is then quantified using an Envision instrument (PerkinElmer).
Data were analyzed using AbaseXE 7.3, utilizing a four-parameter curve fit equation. The following values were used to define limits and/or constraints for each of the four parameters: • Minimum—limit −10 to 10 • Maximum—90 to 110 • Slope—limit 0.5 to 2.0 • pXC50 confidence interval—10
Raw counts obtained from the respective plate reader (Perkin Elmer) were captured for data analysis. Curves were generated using the equation: Y=A+[(B−A)/(1+(10^C/x)^D)] • where: A=minimum response • B=maximum response • C=log 10*XC50 • D=slope factor • x=log 10 compound concentration [M]
The results were recorded as pXC50 values (−C in the above equation)

[2] = target: T2, furin (endogenous protease) in U20S cells (Homo sapiens, UniProt P09958); experiment: Furin cell-based assay (image-based, Golgi-targeted GFP with BMP10 furin/PCSK cleavage site); conditions: 24-hour incubation, read-out: furin golgi cell pXC50 (converted);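 note: Read-out is mean GFP fluorescence of Golgi puncta per cell by high-content imaging, retained when furin inhibited, over an eleven-point 0.00017–10 µM series, four-parameter fit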
T2 construct: the endogenous protease cleaves GFP; endogenous in cells; host or cells: U2OS cells transduced with a BacMam reporter
T2 sequence (P09958 108-794): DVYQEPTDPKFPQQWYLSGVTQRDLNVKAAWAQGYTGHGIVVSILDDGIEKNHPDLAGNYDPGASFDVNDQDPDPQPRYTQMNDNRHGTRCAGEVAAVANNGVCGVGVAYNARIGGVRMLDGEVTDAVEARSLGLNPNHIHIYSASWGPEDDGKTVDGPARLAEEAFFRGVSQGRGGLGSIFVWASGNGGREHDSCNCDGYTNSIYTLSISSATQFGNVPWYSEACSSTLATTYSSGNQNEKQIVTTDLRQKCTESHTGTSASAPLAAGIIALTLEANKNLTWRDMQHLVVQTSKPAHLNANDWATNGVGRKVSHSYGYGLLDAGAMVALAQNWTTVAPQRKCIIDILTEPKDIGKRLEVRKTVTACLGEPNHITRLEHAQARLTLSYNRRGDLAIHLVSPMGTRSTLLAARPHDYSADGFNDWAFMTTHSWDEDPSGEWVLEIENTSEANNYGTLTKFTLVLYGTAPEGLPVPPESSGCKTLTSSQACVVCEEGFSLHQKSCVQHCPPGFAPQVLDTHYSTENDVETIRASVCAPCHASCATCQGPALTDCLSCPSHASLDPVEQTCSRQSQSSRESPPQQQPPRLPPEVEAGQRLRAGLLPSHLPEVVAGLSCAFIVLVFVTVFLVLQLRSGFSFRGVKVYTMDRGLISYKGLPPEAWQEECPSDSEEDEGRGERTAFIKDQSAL

T1 sequence (P09958 108-574): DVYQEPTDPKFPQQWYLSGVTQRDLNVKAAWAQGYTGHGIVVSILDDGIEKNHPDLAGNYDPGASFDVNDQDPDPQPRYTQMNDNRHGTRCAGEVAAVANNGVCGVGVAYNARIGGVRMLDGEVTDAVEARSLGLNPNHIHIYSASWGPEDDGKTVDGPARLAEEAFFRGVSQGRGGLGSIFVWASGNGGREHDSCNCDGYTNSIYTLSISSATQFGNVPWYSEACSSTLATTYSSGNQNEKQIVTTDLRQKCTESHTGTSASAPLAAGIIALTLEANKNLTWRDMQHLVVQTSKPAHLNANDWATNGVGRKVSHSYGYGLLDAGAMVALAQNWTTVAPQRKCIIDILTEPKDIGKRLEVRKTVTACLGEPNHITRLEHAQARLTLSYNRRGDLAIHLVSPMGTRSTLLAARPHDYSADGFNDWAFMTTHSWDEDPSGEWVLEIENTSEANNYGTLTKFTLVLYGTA

| SMILES | furin enzyme pIC50 [1] | EC50 [2] [nM] |
| --- | --- | --- |
| CNC(=O)NCC1CCN(Cc2cc(Oc3cnc(N4CCN(C(C)CCS(C)(=O)=O)CC4)nc3)nc(-c3cc(Cl)cc(Cl)c3)c2)CC1 (stereo not drawn) [Example 18, 1-((1-((2-(3,5-dichlorophenyl)-6-((2-(4-(4-(methylsulfonyl)butan-2-yl)piperazin-1-yl)pyrimidin-5-yl)oxy)pyridin-4-yl)methyl)piperidin-4-yl)methyl)-3-methylurea] | 10.7 | 0.501 |
| CC(=O)NCC1CCN(Cc2cc(Oc3cnc(N4CCN(C(C)CCS(C)(=O)=O)CC4)nc3)nc(-c3cc(Cl)cc(Cl)c3)c2)CC1 (stereo not drawn) [Example 19, N-((1-((2-(3,5-dichlorophenyl)-6-((2-(4-(4-(methylsulfonyl)butan-2-yl)piperazin-1-yl)pyrimidin-5-yl)oxy)pyridin-4-yl)methyl)piperidin-4-yl)methyl)acetamide] | 10.2 | 0.398 |
| CNC(=O)NCC1CCN(Cc2cc(Oc3cnc(N4CCN(C(C)CCO)CC4)nc3)nc(-c3cc(Cl)cc(Cl)c3)c2)CC1 (stereo not drawn) [Example 20, 1-((1-((2-(3,5-dichlorophenyl)-6-((2-(4-(4-hydroxybutan-2-yl)piperazin-1-yl)pyrimidin-5-yl)oxy)pyridin-4-yl)methyl)piperidin-4-yl)methyl)-3-methylurea] | 9.6 | 1 |
| CC(CO)N1CCN(c2ncc(Oc3cc(CN4CCC(CC(=O)O)CC4)cc(-c4cc(Cl)cc(Cl)c4)n3)cn2)CC1 (stereo not drawn) [Example 21, 2-(1-((2-(3,5-dichlorophenyl)-6-((2-(4-(1-hydroxypropan-2-yl)piperazin-1-yl)pyrimidin-5-yl)oxy)pyridin-4-yl)methyl)piperidin-4-yl)acetic acid] | 9.9 | 6.31 |
| O=C(O)CC1CCN(Cc2cc(Oc3cnc(N4CCN(C5CC(O)C5)CC4)nc3)nc(-c3cc(Cl)cc(Cl)c3)c2)CC1 (stereo not drawn) [Example 22, 2-(1-((2-(3,5-dichlorophenyl)-6-((2-(4-(3-hydroxycyclobutyl)piperazin-1-yl)pyrimidin-5-yl)oxy)pyridin-4-yl)methyl)piperidin-4-yl)acetic acid] | 9.5 | 10 |
| O=C(O)CC1CCN(Cc2cc(Oc3cnc(N4CCN(C(CO)CO)CC4)nc3)nc(-c3cc(Cl)cc(Cl)c3)c2)CC1 [Example 23, 2-(1-((2-(3,5-dichlorophenyl)-6-((2-(4-(1,3-dihydroxypropan-2-yl)piperazin-1-yl)pyrimidin-5-yl)oxy)pyridin-4-yl)methyl)piperidin-4-yl)acetic acid] | 8.3 | 15.8 |
| C[C@]1(O)C[C@@H](N2CCN(c3ncc(Oc4cc(CN5CCC(CC(=O)O)CC5)cc(-c5cc(Cl)cc(Cl)c5)n4)cn3)CC2)C1 [Example 24, 2-(1-((2-(3,5-dichlorophenyl)-6-((2-(4-((1s,3s)-3-hydroxy-3-methylcyclobutyl)piperazin-1-yl)pyrimidin-5-yl)oxy)pyridin-4-yl)methyl)piperidin-4-yl)acetic acid] | 8.6 | 12.6 |
| C[C@]1(O)C[C@H](N2CCN(c3ncc(Oc4cc(CN5CCC(CC(=O)O)CC5)cc(-c5cc(Cl)cc(Cl)c5)n4)cn3)CC2)C1 [Example 25, 2-(1-((2-(3,5-dichlorophenyl)-6-((2-(4-((1r,3r)-3-hydroxy-3-methylcyclobutyl)piperazin-1-yl)pyrimidin-5-yl)oxy)pyridin-4-yl)methyl)piperidin-4-yl)acetic acid] | 8.2 | 12.6 |
| CC(=O)NCC1CCN(Cc2cc(Oc3ccc(N4CCN([C@H]5C[C@H](NS(C)(=O)=O)C5)CC4)nc3)nc(-c3cc(Cl)cc(Cl)c3)c2)CC1 [Example 26, N-((1-((2-(3,5-Dichlorophenyl)-6-((6-(4-((trans)-3-(methylsulfonamido)cyclobutyl)piperazin-1-yl)pyridin-3-yl)oxy)pyridin-4-yl)methyl)piperidin-4-yl)methyl)acetamide] | 9.9 | 1.58 |
